Experimental data taken from US20260015365A1, “PRODRUGS OF SOMATOSTATIN RECEPTORS SUBTYPE 4 (SSTR4) AGONISTS AND THEIR APPLICATIONS” (Humanwell Pharmaceutical US, Inc., priority 2024, published 2026).

Test: Pharmacokinetics in SD rats after intravenous injection and single oral gavage, plasma LC-MS/MS
Type: in vivo
Conditions: male, rat
Procedure: SD rats (male, 6-8 weeks old, from JH Laboratory Animal Co., Ltd.) were used for intravenous injection and single oral gavage administration. Plasma samples were collected at 0.083, 0.25, 0.5, 1, 2, 4, 8, and 24 hours post-dose.
The plasma samples were obtained by centrifugation (2000 rpm, 4° C., 5 min). Samples were added to a 96-well plate and mixed with 10 volumes of acetonitrile containing an internal standard. After mixing and shaking, the mixture was centrifuged (5800 rpm, 4° C., 10 min), and the supernatant was transferred to a new 96-well plate.
The resulting solution was injected into the LC-MS/MS system. Drug concentrations in plasma were quantified using the LC-MS/MS method, and pharmacokinetic parameters were calculated accordingly.

## CC(C)(NC(=O)[C@H]1[C@@H]2CNC[C@H]1C2)c1ncc2c(Br)cccn12 [compound 1]
IV, 1 mg/kg
  AUC(0-inf): 370 ng·h/mL
  AUC(0-t): 361 ng·h/mL
  MRT inf: 52.7 min
  clearance: 45.2 mL/min/kg
  half-life: 48.8 min
IV, 1 mg/kg, read-out: Vss
  Vd: 2.38 L/kg
PO, 3 mg/kg
  Cmax: 36.3 ng/mL
  Tmax: 1.42 h
  half-life: 146 min
